Columns and labels:
[1] = cited from earlier work
[2] = system: Xenograft A549; test: Example 2: Xenograft A549 mice, tumor volume; assay type: in vivo; details: Group 02: 2 mg/kg cisplatin, corn oil
Protocol: Protocol: Five groups of Xenograft A549 mice were treated and tumor volume tracked for twenty-two days. Group 01 was administered 0.9% Saline, 0 mg/kg cisplatin, Corn Oil, and 0 mg/kg 2-[3-[(3R)-3-[[2-chloro-3-(trifluoromethyl)phenyl]methyl-(2,2-diphenylethyl)amino]butoxy]phenyl]acetic acid; Group 02 was administered 2 mg/kg Cisplatin, Corn Oil, and 0 mg/kg 2-[3-[(3R)-3-[[2-chloro-3-(trifluoromethyl)phenyl]methyl-(2,2-diphenylethyl)amino]butoxy]phenyl]acetic acid; Group 03 was administered 0.9% Saline, 0 mg/kg cisplatin, and 50 mg/kg 2-[3-[(3R)-3-[[2-chloro-3-(trifluoromethyl)phenyl]methyl-(2,2-diphenylethyl)amino]butoxy]phenyl]acetic acid; Group 04 was administered 2 mg/kg cisplatin and 50 mg/kg 2-[3-[(3R)-3-[[2-chloro-3-(trifluoromethyl)phenyl]methyl-(2,2-diphenylethyl)amino]butoxy]phenyl]acetic acid twice per day daily for the entire treatment period; and Group 05 was administered 2 mg/kg cisplatin and 50 mg/kg 2-[3-[(3R)-3-[[2-chloro-3-(trifluoromethyl)phenyl]methyl-(2,2-diphenylethyl)amino]butoxy]phenyl]acetic acid twice per day for five continuous days followed by two days without for the entire treatment period.

[3] = system: mouse melanoma; test: syngeneic mouse melanoma model; assay type: in vivo
[4] = system: BRAF wild-type human melanoma xenograft; test: BRAF wild-type human melanoma xenograft model; assay type: in vivo; details: 100 mg/kg in combination with dacarbazine
[5] = cited from earlier work; remark: listed apart in the source
[6] = cited from earlier work; remark: listed apart in the source

Molecule: ipilimumab: recombinant human IgG1 kappa monoclonal antibody that binds to CTLA-4
- immune-mediated hepatitis ([1]; in vivo): immune-mediated hepatitis has been observed

Molecule: N.N.[Cl][Pt][Cl] [cisplatin, reference compound]
- mean tumor volume ([2]; day 0, in mm³ (unit assumed)): 86.05
- mean tumor volume ([2]; day 3): 116.20
- mean tumor volume ([2]; day 6): 196.48
- mean tumor volume ([2]; day 9, in mm³ (unit assumed)): 276.41
- mean tumor volume ([2]; day 12, in mm³ (unit assumed)): 450.58
- mean tumor volume ([2]; day 15, in mm³ (unit assumed)): 598.84
- mean tumor volume ([2]; day 19): 1239.53
- mean tumor volume ([2]; day 22): 1521.86

Molecule: CC(=O)O[C@@]12CO[C@@H]1C[C@H](O)[C@@]1(C)C(=O)[C@H](O)C3=C(C)[C@@H](OC(=O)[C@H](O)[C@@H](NC(=O)OC(C)(C)C)c4ccccc4)C[C@@](O)([C@@H](OC(=O)c4ccccc4)[C@H]21)C3(C)C [docetaxel, (2R,3S)—N-carboxy-3-phenylisoserine,N-tert-butyl ester, 13-ester with 5b-20-epoxy-1,2a,4,7b, 10b, 13a-hexahydroxytax-11-en-9-one 4-acetate 2-benzoate, trihydrate]
- hepatotoxicity ([1]; treatment with the partner drug): hepatotoxicity has been observed

Molecule: Cl.O=C(O)Cc1cccc(OCCCN(Cc2cccc(C(F)(F)F)c2Cl)CC(c2ccccc2)c2ccccc2)c1 [GW3965, 3-[3-[N-(2-Chloro-3-trifluoromethylbenzyl)-(2,2-diphenylethyl)amino]propyloxy]phenylacetic acid hydrochloride, reference compound]
- tumor suppressive efficacy ([3]; 100 mg/kg in combination with anti-CTLA-4): additive tumor suppressive efficacy
- anti-tumor efficacy ([3]; 100 mg/kg in combination with dacarbazine, syngeneic melanoma animal model): Additive anti-tumor efficacy
- anti-tumor efficacy [4]: Additive anti-tumor efficacy

Molecule: N.N.O=C([O-])C1(C(=O)[O-])CCC1.[Pt+2] [Carboplatin, platinum, diammine[1,1-cyclobutanedicarboxylato(2-)-O,O′]-, (SP-4-2)]
- solubility in ethanol, acetone, and dimethylacetamide ([5]; ethanol, acetone, dimethylacetamide): virtually insoluble
- solubility in water ([5]; water): approximately 14 mg/mL
- pH of a 1% solution [6]: 5-7

Molecule: nivolumab: fully human immunoglobulin (Ig) G4 monoclonal antibody directed against programmed death-1 (PD-1)
- hyperlipidemia in treated subjects ([1]; in vivo): has also been reported
- immune-mediated hepatitis ([1]; in vivo): immune-mediated hepatitis has been observed

Reference: patent US20220331274A1, “METHODS OF TREATING CANCER” (Inspirna, Inc., priority 2019, published 2022)
